Data published in PubChem BioAssay AID328 (DTP/NCI, 2004).
Several values for one entry are separate records, joined by “and”; a condition that tells them apart may be missing. Identical values can stand only once. Inconclusive results and toxic doses are left out.

Tested on: BDF1 mice, P388 leukemia ip, median survival T/C
Experiment: NCI In Vivo Anticancer Drug Screen. Data for tumor model P388 Leukemia (intraperitoneal) in B6D2F1 (BDF1) mice
Conditions: endpoint: median survival time, higher = longer survival
In short: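 Steps: implant the tumour, treat one group with compound and another with vehicle, record survival, then divide treated by control.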

[1] = dose: 50.0 mg/kg/injection, schedule: Q01DX009 (ip), vehicle: Klucel (hydroxypropylcellulose) (HPC)
[2] = dose: 100.0 mg/kg/injection, schedule: Q01DX009 (ip), vehicle: Klucel (hydroxypropylcellulose) (HPC)
[3] = dose: 50.0 mg/kg/injection, schedule: Q01DX009 (ip), vehicle: saline with Tween-80
[4] = dose: 100.0 mg/kg/injection, schedule: Q01DX009 (ip), vehicle: saline with Tween-80
[5] = dose: 200.0 mg/kg/injection, schedule: Q01DX009 (ip), vehicle: saline with Tween-80

## C=C1C(=O)O[C@H]2C1[C@H](OC(=O)/C(C)=C\COC(C)=O)C[C@]1(CO1)[C@@H]1[C@H](O)[C@H]3O[C@@]3(C)[C@@H]12 (some centres undefined)
dose: 3.12 mg/kg/injection, schedule: Q01DX009 (ip), vehicle: other
  T/C: 103 % of control
dose: 6.25 mg/kg/injection, schedule: Q01DX009 (ip), vehicle: other
  T/C: 96 % of control and 120 % of control
dose: 12.5 mg/kg/injection, schedule: Q01DX009 (ip), vehicle: other
  T/C: 101 % of control
dose: 50.0 mg/kg/injection, schedule: Q01DX009 (ip), vehicle: other
  T/C: 173 % of control

## O=C(O)CCc1c[nH]c2ccc(N(CCCl)CCCl)cc12
dose: 0.04 mg/kg/injection, schedule: Q04DX003 (ip), vehicle: saline with Tween-80
  T/C: 109 % of control
dose: 0.08 mg/kg/injection, schedule: Q04DX003 (ip), vehicle: saline with Tween-80
  T/C: 109 % of control
dose: 0.5 mg/kg/injection, schedule: Q04DX003 (ip), vehicle: saline with Tween-80
  T/C: 158 % of control
dose: 0.5 mg/kg/injection, schedule: Q04DX003 (ip), vehicle: saline
  T/C: 231 % of control
dose: 0.75 mg/kg/injection, schedule: Q04DX003 (ip), vehicle: saline with Tween-80
  T/C: 154 % of control
dose: 1.0 mg/kg/injection, schedule: Q04DX003 (ip), vehicle: saline
  T/C: 90 % of control

## COC1OC(COS(=O)(=O)c2ccc(C)cc2)C2OC(C)(C)OC12 (centres undefined)
[1]
  T/C: 104 % of control
[2]
  T/C: 90 % of control
dose: 400.0 mg/kg/injection, schedule: Q01DX009 (ip), vehicle: Klucel (hydroxypropylcellulose) (HPC)
  T/C: 90 % of control

## OC1CC2CC1C(Cl)C2Cl (centres undefined)
[3]
  T/C: 113 % of control
[4]
  T/C: 96 % of control
[5]
  T/C: 98 % of control

## OC(Cc1ccnc2ccccc12)C(Cl)(Cl)Cl (centres undefined)
dose: 50.0 mg/kg/injection, schedule: Q04DX003 (ip), vehicle: saline with Tween-80
  T/C: 100 % of control
[4]
  T/C: 100 % of control
dose: 100.0 mg/kg/injection, schedule: Q04DX003 (ip), vehicle: Klucel (hydroxypropylcellulose) (HPC)
  T/C: 105 % of control
dose: 100.0 mg/kg/injection, schedule: Q04DX003 (ip), vehicle: saline with Tween-80
  T/C: 100 % of control
[5]
  T/C: 100 % of control
dose: 200.0 mg/kg/injection, schedule: Q04DX003 (ip), vehicle: Klucel (hydroxypropylcellulose) (HPC)
  T/C: 100 % of control
dose: 200.0 mg/kg/injection, schedule: Q04DX003 (ip), vehicle: saline with Tween-80
  T/C: 105 % of control
dose: 400.0 mg/kg/injection, schedule: Q01DX009 (ip), vehicle: saline with Tween-80
  T/C: 100 % of control
dose: 400.0 mg/kg/injection, schedule: Q04DX003 (ip), vehicle: Klucel (hydroxypropylcellulose) (HPC)
  T/C: 115 % of control

## C[N+]1(C)N=C([O-])N(c2ccccc2C(F)(F)F)C1=O
[3]
  T/C: 87 % of control
[4]
  T/C: 92 % of control

## COc1ccc2c(c1C)CCC1(CO)CC(C)=CCC21 (centres undefined)
dose: 100.0 mg/kg/injection, schedule: Q01DX001 (ip), vehicle: saline sonified
  T/C: 90 % of control
dose: 200.0 mg/kg/injection, schedule: Q01DX001 (ip), vehicle: saline sonified
  T/C: 90 % of control
dose: 400.0 mg/kg/injection, schedule: Q01DX001 (ip), vehicle: saline sonified
  T/C: 86 % of control

## CC1N2C3(c4ccccc4)OC(c4ccccc4)(c4ccccc43)C12c1ccccc1 (centres undefined)
[1]
  T/C: 104 % of control
[2]
  T/C: 100 % of control
dose: 200.0 mg/kg/injection, schedule: Q01DX009 (ip), vehicle: Klucel (hydroxypropylcellulose) (HPC)
  T/C: 89 % of control

## COc1cccc2c1C(=O)c1c(O)c3c(c(O)c1C2=O)CC(O)(/C(C)=N\NC(=O)N/N=C(\C)C1(O)Cc2c(O)c4c(c(O)c2C(OC2CC(N)C(O)C(C)O2)C1)C(=O)c1c(OC)cccc1C4=O)CC3OC1CC(N)C(O)C(C)O1 (centres undefined)
dose: 3.13 mg/kg/injection, schedule: Q04DX003 (ip), vehicle: water
  T/C: 108 % of control
dose: 6.25 mg/kg/injection, schedule: Q04DX003 (ip), vehicle: water
  T/C: 117 % of control
dose: 12.5 mg/kg/injection, schedule: Q04DX003 (ip), vehicle: water
  T/C: 117 % of control
dose: 50.0 mg/kg/injection, schedule: Q04DX003 (ip), vehicle: water
  T/C: 153 % of control
dose: 100.0 mg/kg/injection, schedule: Q04DX003 (ip), vehicle: water
  T/C: 162 % of control

## CC(=O)Nc1cc(C)no1
dose: 100.0 mg/kg/injection, schedule: Q01DX009 (ip), vehicle: saline
  T/C: 90 % of control
dose: 100.0 mg/kg/injection, schedule: Q04DX003 (ip), vehicle: saline
  T/C: 109 % of control
dose: 200.0 mg/kg/injection, schedule: Q01DX009 (ip), vehicle: saline
  T/C: 95 % of control
dose: 200.0 mg/kg/injection, schedule: Q04DX003 (ip), vehicle: saline
  T/C: 109 % of control
dose: 400.0 mg/kg/injection, schedule: Q01DX009 (ip), vehicle: saline
  T/C: 100 % of control
dose: 400.0 mg/kg/injection, schedule: Q04DX003 (ip), vehicle: saline
  T/C: 104 % of control
